# Source: patent US4760136A, “Chartreusin derivatives and salts thereof” (Ishihara Sangyo Kaisha, Ltd., priority 1984, dated 1988)
# Assays:
# cancer = conditions: different sites; cited from earlier work
# P-388 leukemia = conditions: i.p. inoculation, i.p. administration; cited from earlier work
# L-1210 leukemia = conditions: i.p. inoculation, i.p. administration; cited from earlier work
# B-16 melanoma = conditions: i.p. inoculation, i.p. administration; cited from earlier work
# P-388 leukemia cells = assay: Antitumor activity: P-388 leukemia cells inoculated intraperitoneally, drug administered intravenously, BDF1 mice; assay type: in vivo
# How it was run: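 Drug dosing was intravenous on the first, fifth and ninth days after intraperitoneal inoculation of P-388 leukemia cells (1×10^6 per mouse) into BDF1 mice. Vehicles were physiological saline alone, or saline with small amounts of sodium carboxymethyl cellulose or Tween-80.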
# ddY mice = assay: Acute toxicity, intravenous (once), ddY mice; assay type: in vivo; conditions: formulated per Preparation Example
# Description: In Table 7 are shown acute toxicity values (LD50, mg/kg) in ddY mice in the case of intravenously administering (once) each of the compounds of this invention in the form of preparations shown in the Preparation Examples shown in Table 7.
compound,measurement,setting,value
CO[C@H]1[C@@H](O)[C@@H](C)O[C@H](O[C@H]2[C@H](Oc3cccc4c(O)c5c(=O)oc6ccc(C)c7c(=O)oc(c34)c5c67)O[C@H](C)[C@H](O)[C@@H]2O)[C@@H]1O [chartreusin],antitumorous activity when site of cancer inoculation and site of administration were different,cancer,not effective at all
same,antitumorous activity against P-388 leukemia,P-388 leukemia,effective
same,antitumorous activity against L-1210 leukemia,L-1210 leukemia,effective
same,antitumorous activity against B-16 melanoma,B-16 melanoma,effective
same,T/C (%),"P-388 leukemia cells; 50 mg/kg/day x 3, suspension in 0.2M Na2HPO4 / N,N-dimethylacetamide (4:1), comparison",105%
"COC1C(O)C(C)OC(OC2C(Oc3cccc4c(OC(=O)C5CCCCC5NC(=O)C(F)(F)F)c5c(=O)oc6ccc(C)c7c(=O)oc(c34)c5c67)OC(C)C3OC(c4cccc(F)c4)OC32)C1O (single isomer, unassigned) [Compound No. 117, 6-O-(N-Trifluoroacetyl-2-Amino-Cyclohexanecarbonyl)-3',4'-O-(m-Fluorobenzylidene)-Chartreusin]",LD50,ddY mice,≥ 30 mg/kg
same,response vs control in vivo at 40 mg/kg,"P-388 leukemia cells; Mus musculus, P388, iv, dose c: 40 mg/kg × 3, i.v. on days 1, 5 and 9, BDF1 mice, P-388 i.p., read-out: T/C (%) of MST",135%
COC1C(O)C(C)OC(OC2C(Oc3cccc4c(OC(=O)CC(C)NC(=O)C(F)(F)F)c5c(=O)oc6ccc(C)c7c(=O)oc(c34)c5c67)OC(C)C3OC(c4ccccc4)OC32)C1O (stereo not drawn) [compound 66],LD50,ddY mice,≥ 60 mg/kg
same,response vs control in vivo at 80 mg/kg,"P-388 leukemia cells; Mus musculus, P388, iv, dose f: 80 mg/kg × 3, i.v. on days 1, 5 and 9, BDF1 mice, P-388 i.p., read-out: T/C (%) of MST",171%
"COC1C(O)C(C)OC(OC2C(Oc3cccc4c(OC(=O)C5CCCCC5NC(=O)C(F)(F)F)c5c(=O)oc6ccc(C)c7c(=O)oc(c34)c5c67)OC(C)C3OC(c4ccccc4)OC32)C1O (single isomer, unassigned) [Compound No. 26, 6-O-(N-Trifluoroacetyl-2-Amino-Cyclohexanecarbonyl)-3',4'-O-Benzylidene-Chartreusin]",LD50,ddY mice,≥ 40 mg/kg
same,response vs control in vivo at 20 mg/kg,"P-388 leukemia cells; Mus musculus, P388, iv, dose b: 20 mg/kg × 3, i.v. on days 1, 5 and 9, BDF1 mice, P-388 i.p., read-out: T/C (%) of MST",195%
same,T/C (%) of MST,"P-388 leukemia cells; dose c: 40 mg/kg × 3, i.v. on days 1, 5 and 9, BDF1 mice, P-388 i.p.",220%
